Here are results for 15 compounds from PMC5809559, “DYRK1A inhibition and cognitive rescue in a Down syndrome mouse model are induced by new fluoro-DANDY derivatives” (Scientific Reports, 2018).

For data set [1], the target named is T1, DYRK1A catalytic domain (DYRK1A-ΔC) (Rattus norvegicus, UniProt Q63470).
T1 construct: The cDNA coding for the catalytic domain (residues 1-502) of rat DYRK1A; 6xHis; made in house; host or cells: E. coli BL21(DE3), pET28
Put plainly: In vitro DYRK1A kinase inhibition, UFLC assay with fluorescent peptide substrate. The conditions noted are these: read-out: IC50, in vitro inhibition of DYRK1A. The format is biochemical.

The next data set relates to KB cells. Put plainly: KB cell proliferation / cytotoxicity (CellTiter-Blue). The format is cell-based. To be noted: Homo sapiens; for inhibition at 1 µM / inhibition at 10 µM: 72 h; for inhibition at 1 µM: 10^−6 M, read-out: % Growth inhibition 10^−6 M; for inhibition at 10 µM: 10^−5 M, read-out: % Growth inhibition 10^−5 M. The method, then: Cancer cell lines were obtained from the American Type Culture Collection (Rockville, MD, USA) and were cultured according to the supplier’s instructions. Briefly, human KB epidermal carcinoma cells were grown in Dulbecco minimal essential medium (DMEM) containing 4.5 g/L glucose supplemented with 10% fetal calf serum (FCS) and 1% glutamine, 100 UI penicillin, 100 µg/mL streptomycin and 1.5 µg/mL fungizone and maintained at 37 °C in a humidified atmosphere containing 5% CO2. Cell viability was assessed using Promega CellTiter-Blue TM reagent according to the manufacturer’s instructions. Cells were seeded in 96-well plates (5 × 10^3 cells/well) containing […]. After 24 h of culture, the cells were supplemented with […] of the studied compound dissolved in DMSO (less than 0.1% in each preparation). After 72 h of incubation, […] of resazurin was added for 2 h before recording fluorescence (λex = 560 nm, λem = 590 nm) using a Victor microtiter plate fluorimeter (Perkin-Elmer, USA).

The next data set concerns the target T2, DYRK1A (Homo sapiens, UniProt Q13627).
T2 construct: vectors encoding full-length human DYRK1A and Tau; host or cells: HEK293
Put plainly: Inhibition of tau phosphorylation by DYRK1A in cellulo (HEK293 co-transfected with DYRK1A and Tau, ClariCELL ELISA phospho-TauT212). The format is cell-based. (In general: In an ELISA, binding on a coated surface is turned into a signal by an enzyme label.)

Details of data set [2]: method as in PMID 27194478. To be noted: other drugs acting on the central nervous system; cited from earlier work.
Setting [3] is: 3,5-diaryl-7-azaindoles 4a-4f, Fig. 4.
[4] abbreviates: 3,5-diaryl-7-azaindoles 5a-5g, Fig. 5.

Several values for one entry are separate records, joined by “and”; a condition that tells them apart may be missing. Identical values can stand only once. Like-named read-outs stand apart in the source and are kept apart here.

Broadly, the IC50 is the concentration needed to halve the response being measured. In the case of `COc1ccc(-c2cnc3[nH]cc(-c4ccc(F)cc4)c3c2)cc1OC` [Compound 4a], the IC50 in data set [1] (setting [3]) was found to be 1430 nM.

`COc1ccc(-c2cnc3[nH]cc(-c4ccc(F)cc4)c3c2)c(OC)c1` [Compound 4b]: in data set [1] (setting [3]), the IC50 came to 920 nM. On the same count and under the same terms, in the case of `COc1ccc(-c2cnc3[nH]cc(-c4ccc(F)c(F)c4)c3c2)cc1OC` [Compound 4c] it was 5260 nM; in that of `COc1ccc(-c2cnc3[nH]cc(-c4ccc(F)c(F)c4)c3c2)c(OC)c1` [Compound 4d], 37400 nM; in that of `COc1ccc(-c2c[nH]c3ncc(-c4ccc(OCc5ccccc5)cc4)cc23)cc1F` [Compound 4e], 6090 nM. On the same count and under the same terms, in the case of `COc1ccc(-c2c[nH]c3ncc(-c4ccc(OCc5ccccc5)c(OCc5ccccc5)c4)cc23)cc1OC` [Compound 4f] it was 18500 nM. With `Oc1ccc(-c2cnc3[nH]cc(-c4ccc(F)cc4)c3c2)c(O)c1` [Compound 5b], the IC50 in data set [1] (setting [4]) was 191 nM.

The inhibition is the change of the read-out against control, counted positive when it falls. In the case of `Oc1ccc(-c2cnc3[nH]cc(-c4ccc(F)c(F)c4)c3c2)cc1O` [Compound 5c], the IC50 in data set [1] (setting [4]) is 56.6 nM. Also, the inhibition at 1 µM in the data set on KB cells (KB) was 6 ± 2%.

Regarding `Oc1ccc(-c2cnc3[nH]cc(-c4ccc(F)c(F)c4)c3c2)c(O)c1` [Compound 5d], the half-inhibitory concentration (IC50) in data set [1] (setting [4]) is 232 nM.

Regarding `COc1ccc(-c2c[nH]c3ncc(-c4ccc(O)cc4)cc23)cc1F` [Compound 5e], the IC50 in data set [1] (setting [4]) turned out to be 41.5 nM. Further, in the data set on KB cells, the inhibition at 10 µM was determined as 66 ± 3% and the inhibition at 1 µM worked out at 30 ± 1%. `COc1ccc(-c2c[nH]c3ncc(-c4ccc(O)c(O)c4)cc23)cc1OC` [Compound 5f]: the IC50 in data set [1] (setting [4]) came to 476 nM. Consider `Oc1ccc(-c2cnc3[nH]cc(-c4ccc(O)c(F)c4)c3c2)cc1` [Compound 5g], for which the IC50 in data set [1] (setting [4]) was 9.34 nM and 9.3 nM; on DYRK1A (HEK293 transfected with DYRK1A and tau, 2 h incubation) it was 380 nM; in the data set on KB cells (estimated, read-out: estimated IC50, KB cell growth inhibition) it was ~1000 nM. In addition, the “Ratio between in cellulo and in vitro inhibitory potencies” value at DYRK1A (tau phosphorylation IC50 / in vitro DYRK1A IC50) worked out at 41. Also, the inhibition at 10 µM in the data set on KB cells (KB) is 95 ± 1%. Also, the inhibition at 1 µM in the data set with KB cells (KB) was found to be 46 ± 1%. As for `CC(NC(C)(C)C)C(=O)c1cccc(Cl)c1` (centres unmarked) [buproprion], in data set [2], the “Kp (brain concentration/plasma concentration)” value is on record as 4.97.

Take `CNCCC(Oc1ccc(C(F)(F)F)cc1)c1ccccc1` (centres unmarked) [fluoxetine]: the “Kp (brain concentration/plasma concentration)” value in data set [2] was 5.23. Consider `OCCN1CCN(CCCN2c3ccccc3Sc3ccc(Cl)cc32)CC1` [perphenazine], for which, in data set [2], the “Kp (brain concentration/plasma concentration)” value is given as 7.12.
